As a reminder, the CC50 is the concentration at which the toxic effect on the cells reaches its halfway point. A higher CC50 goes with better tolerance by the cells.

Among the data in patent US20220363686A1 (AiCuris GmbH & Co. KG, priority 2018, published 2022) are IC50, CC50 and EC50 values, retold here.

Data set [1] concerns the target HBV core protein (C-terminal truncated core protein containing 149 amino acids of the N-terminal assembly domain) (UniProt P03146). The experiment in a line: Biochemical capsid assembly assay (fluorescence quenching). The following applies: read-out: Assembly Activity; BODIPY-FL labelled core protein, assembly started with NaCl, read after 6 min. Details: rows headed: Assembly Activity; other: BODIPY-FL labelled core protein, assembly started with NaCl, read after 6 min. On the procedure:
The screening for assembly effector activity was done based on a fluorescence quenching assay published by Zotnick et al. (2007). The C-terminal truncated core protein containing 149 amino acids of the N-terminal assembly domain fused to a unique cysteine residue at position 150 and was expressed in E. coli using the pET expression system (Merck Chemicals, Darmstadt). Purification of core dimer protein was performed using a sequence of size exclusion chromatography steps. In brief, the cell pellet from 1 L BL21 (DE3) Rosetta2 culture expressing the coding sequence of core protein cloned NdeI/XhoI into expression plasmid pET21b was treated for 1 h on ice with a native lysis buffer (Qproteome Bacterial Protein Prep Kit; Qiagen, Hilden). After a centrifugation step the supernatant was precipitated during 2 h stirring on ice with 0.23 g/ml of solid ammonium sulfate. Following further centrifugation the resulting pellet was resolved in buffer A (100 mM Tris, pH 7.5; 100 mM NaCl; 2 mM DTT) and was subsequently loaded onto a buffer A equilibrated CaptoCore 700 column (GE HealthCare, Frankfurt). The column flow through containing the assembled HBV capsid was dialyzed against buffer N (50 mM NaHCO3 pH 9.6; 5 mM DTT) before urea was added to a final concentration of 3M to dissociate the capsid into core dimers for 1.5 h on ice. The protein solution was then loaded onto a IL Sephacryl S300 column. After elution with buffer N core dimer containing fractions were identified by SDS-PAGE and subsequently pooled and dialyzed against 50 mM HEPES pH 7.5; 5 mM DTT. To improve the assembly capacity of the purified core dimers a second round of assembly and disassembly starting with the addition of 5 M NaCl and including the size exclusion chromatography steps described above was performed. From the last chromatography step core dimer containing fractions were pooled and stored in aliquots at concentrations between 1.5 to 2.0 mg/ml at −80° C.
Immediately before labelling the core protein was reduced by adding freshly prepared DTT in a final concentration of 20 mM. After 40 min incubation on ice storage buffer and DTT was removed using a Sephadex G-25 column (GE HealthCare, Frankfurt) and 50 mM HEPES, pH 7.5. For labelling 1.6 mg/ml core protein was incubated at 4° C. and darkness overnight with BODIPY-FL maleimide (Invitrogen, Karlsruhe) in a final concentration of 1 mM. After labelling the free dye was removed by an additional desalting step using a Sephadex G-25 column. Labelled core dimers were stored in aliquots at 4° C. In the dimeric state the fluorescence signal of the labelled core protein is high and is quenched during the assembly of the core dimers to high molecular capsid structures. The screening assay was performed in black 384 well microtiter plates in a total assay volume of 10 μl using 50 mM HEPES pH 7.5 and 1.0 to 2.0 μM labelled core protein. Each screening compound was added in 8 different concentrations using a 0.5 log-unit serial dilution starting at a final concentration of 100 μM, 31.6 μM or 10 μM, In any case the DMSO concentration over the entire microtiter plate was 0.5%. The assembly reaction was started by the injection of NaCl to a final concentration of […] which induces the assembly process to approximately 25% of the maximal quenched signal. 6 min after starting the reaction the fluorescence signal was measured using a Clariostar plate reader (BMG Labtech, Ortenberg) with an excitation of 477 nm and an emission of 525 nm. As 100% and 0% assembly control HEPES buffer containing 2.5 M and 0 M NaCl was used. Experiments were performed thrice in triplicates. EC50 values were calculated by non-linear regression analysis using the Graph Pad Prism 6 software (GraphPad Software, La Jolla, USA).

Data set [2] in a line: Cell viability assay (AlamarBlue). The following applies: human, HepAD38 cells.
The subject of the next data set is HBV. Briefly: Determination of HBV DNA from the supernatants of HepAD38 cells (anti-HBV activity). The format is cell-based, hepatitis B virus. To be noted: Hepatitis B virus, HePAD38, 144 h, HBV DNA in HepAD38 supernatant, day 6, qPCR; read-out: Cell Activity. On the procedure: The anti-HBV activity was analysed in the stable transfected cell line HepAD38, which has been described to secrete high levels of HBV virion particles (Ladner et al., 1997). In brief, HepAD38 cells were cultured at 37° C. at 5% CO2 and 95% humidity in 200 μl maintenance medium, which was Dulbecco's modified Eagle's medium/Nutrient Mixture F-12 (Gibco, Karlsruhe), 10% fetal bovine serum (PAN Biotech Aidenbach) supplemented with 50 μg/ml penicillin/streptomycin (Gibco, Karlsruhe), 2 mM L-glutamine (PAN Biotech, Aidenbach), 400 μg/ml G418 (AppliChem, Darmstadt) and 0.3 μg/ml tetracycline. Cells were subcultured once a week in a 1:5 ratio, but were usually not passaged more than ten times. For the assay 60,000 cells were seeded in maintenance medium without any tetracycline into each well of a 96-well plate and treated with serial half-log dilutions of test compound. To minimize edge effects the outer 36 wells of the plate were not used but were filled with assay medium. On each assay plate six wells for the virus control (untreated HepAD38 cells) and six wells for the cell control (HepAD38 cells treated with 0.3 μg/ml tetracycline) were allocated, respectively. In addition, one plate set with reference inhibitors like BAY 41-4109, entecavir, and lamivudine instead of screening compounds were prepared in each experiment. In general, experiments were performed thrice in triplicates. At day 6 HBV DNA from 100 μl filtrated cell culture supernatant (AcroPrep Advance 96 Filter Plate, […] Supor membran, PALL GmbH, Dreieich) was automatically purified on the MagNa Pure LC instrument using the MagNA Pure 96 DNA and Viral NA Small Volume Kit (Roche Diagnostics, Mannheim) according to the instructions of the manufacturer. EC50 values were calculated from relative copy numbers of HBV DNA In brief, 5 μl of the 100 μl eluate containing HBV DNA were subjected to PCR LC480 Probes Master Kit (Roche) together with 1 μM antisense primer […], 0.5 μM sense primer […], 0.3 μM hybprobes […]-FL and LC640-[…]-PH (TIBMolBiol, Berlin) to a final volume of 12.5 μl. The PCR was performed on the Light Cycler 480 real time system (Roche Diagnostics, Mannheim) using the following protocol: Pre-incubation for 1 min at 95° C., amplification: 40 cycles×(10 sec at 95° C., 50 sec at 60° C., 1 sec at 70° C.), cooling for 10 sec at 40° C. Viral load was quantitated against known standards using HBV plasmid DNA of pCH-9/3091 (Nassal et al., 1990, Cell 63: 1357-1363) and the LightCycler 480 SW 1.5 software (Roche Diagnostics, Mannheim) and ECso values were calculated using non-linear regression with GraphPad Prism 6 (GraphPad Software Inc., La Jolla, USA).
Background: Real-time PCR tracks product formation cycle by cycle.

The structures appear in SMILES notation.

HBV core protein (C-terminal truncated core protein containing 149 amino acids of the N-terminal assembly domain), sequence (P03146 whole entry, the tested form may be a part): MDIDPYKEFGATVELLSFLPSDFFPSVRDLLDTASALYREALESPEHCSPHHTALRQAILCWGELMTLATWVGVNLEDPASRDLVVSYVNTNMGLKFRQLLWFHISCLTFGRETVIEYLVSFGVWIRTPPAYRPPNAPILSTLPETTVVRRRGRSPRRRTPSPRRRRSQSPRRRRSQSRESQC

Turning to `O=C(NC1(COC(F)F)CC1)c1cnn2c1CN(C(=O)c1cc3c(F)c(F)ccc3[nH]1)CC2` [Example 104, 5-(4,5-difluoro-1H-indole-2-carbonyl)-N-{1-[(difluoromethoxy)methyl]cyclopropyl}-4H,5H,6H,7H-pyrazolo[1,5-a]pyrazine-3-carboxamide], the IC50 in data set [1] is less than 5 µM. In data set [2], this molecule returned a CC50 at 6 days of more than 10 µM. Besides, the EC50 in the data set with HBV was less than 1000 nM.

In the case of `CN(C(=O)c1cnn2c1CN(C(=O)c1cc3ccccc3[nH]1)CC2)C1(CCOC(F)F)CCC1` [Example 126, N-{1-[2-(difluoromethoxy)ethyl]cyclobutyl}-5-(1H-indole-2-carbonyl)-N-methyl-4H,5H,6H,7H-pyrazolo[1,5-a]pyrazine-3-carboxamide], the IC50 in data set [1] was less than 5 µM. In data set [2], this molecule had a CC50 at 6 days of more than 10 µM. The EC50 with HBV was 1000 to 10000 nM.

With `O=C(c1cc2c(F)c(F)ccc2[nH]1)N1CCn2ncc(C3CCC3)c2C1` [Example 3, 2-{3-cyclobutyl-4H,5H,6H,7H-pyrazolo[1,5-a]pyrazine-5-carbonyl}-4,5-difluoro-1H-indole], the IC50 in data set [1] was less than 5 µM. Also, the CC50 at 6 days in data set [2] is more than 10 µM. The EC50 with HBV is less than 1000 nM.

Take `O=C(c1cc2ccccc2[nH]1)N1CCn2ncc(N3CC4(CC4)CC3=O)c2C1` [Example 49, 5-[5-(1H-indole-2-carbonyl)-4H,5H,6H,7H-pyrazolo[1,5-a]pyrazin-3-yl]-5-azaspiro[2.4]heptan-6-one]: the IC50 in data set [1] is less than 5 µM. This molecule returned a CC50 at 6 days in data set [2] of more than 10 µM. For the same molecule, the EC50 in the data set on HBV was less than 1000 nM.

`Cc1cc(F)cc2[nH]c(C(=O)N3CCn4ncc(C(=O)N5CCCOCC56CC6)c4C3)cc12` [Example 107, 4-[5-(6-fluoro-4-methyl-1H-indole-2-carbonyl)-4H,5H,6H,7H-pyrazolo[1,5-a]pyrazine-3-carbonyl]-8-oxa-4-azaspiro[2.6]nonane]: in data set [1], the IC50 was less than 5 µM. The same molecule displayed a CC50 at 6 days in data set [2] of more than 10 µM. Further, the EC50 with HBV was less than 1000 nM.

With `CN(C(=O)c1cnn2c1CN(C(=O)c1cc3ccccc3[nH]1)CC2)C1(CNCC(F)F)CC1` [Example 53, N-(1-{[(2,2-difluoroethyl)amino]methyl}cyclopropyl)-5-(1H-indole-2-carbonyl)-N-methyl-4H,5H,6H,7H-pyrazolo[1,5-a]pyrazine-3-carboxamide], the IC50 in data set [1] is less than 5 µM. In data set [2], this molecule came in with a CC50 at 6 days of more than 10 µM. Moreover, the EC50 in the data set on HBV is less than 1000 nM.

Regarding `O=C(c1cc2ccccc2[nH]1)N1CCn2ncc(C(=O)N3CCC4CC43)c2C1` (stereo not drawn) [Example 48, 2-(3-{2-azabicyclo[3.1.0]hexane-2-carbonyl}-4H,5H,6H,7H-pyrazolo[1,5-a]pyrazine-5-carbonyl)-1H-indole], the IC50 in data set [1] is less than 5 µM. The CC50 at 6 days in data set [2] is more than 10 µM. Moreover, the EC50 in the data set on HBV is 1000 to 10000 nM.

With `O=C(c1cc2ccccc2[nH]1)N1CCn2ncc(C(=O)N3CC(F)(F)CC34CC4)c2C1` [Example 19, 2-(3-{6,6-difluoro-4-azaspiro[2.4]heptane-4-carbonyl}-4H,5H,6H,7H-pyrazolo[1,5-a]pyrazine-5-carbonyl)-1H-indole], in data set [1], the IC50 was less than 5 µM. In addition, the CC50 at 6 days in data set [2] was more than 10 µM. Further, the EC50 in the data set with HBV was less than 1000 nM.

`O=C(c1cc2c(Cl)cccc2[nH]1)N1CCn2ncc(C(=O)N3CCCOCC34CC4)c2C1` [Example 110, 4-[5-(4-chloro-1H-indole-2-carbonyl)-4H,5H,6H,7H-pyrazolo[1,5-a]pyrazine-3-carbonyl]-8-oxa-4-azaspiro[2.6]nonane]: in data set [1], the IC50 was less than 5 µM. This molecule also returned a CC50 at 6 days in data set [2] of more than 10 µM. Moreover, the EC50 in the data set on HBV was less than 1000 nM.

On to `CC1Cn2ncc(C(=O)N[C@H](C)C(F)(F)F)c2CN1C(=O)c1cc2c(F)c(F)ccc2[nH]1` (stereo partly drawn) [Example 143, 5-(4,5-difluoro-1H-indole-2-carbonyl)-6-methyl-N-[(2R)-1,1,1-trifluoropropan-2-yl]-4H,5H,6H,7H-pyrazolo[1,5-a]pyrazine-3-carboxamide], for which the IC50 in data set [1] was less than 5 µM. The molecule also came in with a CC50 at 6 days in data set [2] of more than 10 µM. Further, the EC50 in the data set on HBV was less than 1000 nM.

As to `Cc1cc(F)cc2[nH]c(C(=O)N3CCn4ncc(C(=O)N(C)C5(CO)CC5)c4C3)cc12` [Example 83, 5-(6-fluoro-4-methyl-1H-indole-2-carbonyl)-N-[1-(hydroxymethyl)cyclopropyl]-N-methyl-4H,5H,6H,7H-pyrazolo[1,5-a]pyrazine-3-carboxamide], the IC50 in data set [1] was less than 5 µM. The 50% cytotoxic concentration (CC50) at 6 days in data set [2] is more than 10 µM. Besides, the EC50 in the data set on HBV is less than 1000 nM.

Take `O=C(NC1(CCOC(F)F)CCCC1)c1cnn2c1CN(C(=O)c1cc3ccccc3[nH]1)CC2` [Example 124, N-{1-[2-(difluoromethoxy)ethyl]cyclopentyl}-5-(1H-indole-2-carbonyl)-4H,5H,6H,7H-pyrazolo[1,5-a]pyrazine-3-carboxamide]: in data set [1], the IC50 is less than 5 µM. For the same molecule, the CC50 at 6 days in data set [2] is more than 10 µM. For the same molecule, the EC50 in the data set with HBV was less than 1000 nM.

Take `CC1Cn2ncc(C(=O)NC3(COC(F)F)CC3)c2CN1C(=O)c1cc2cc(F)c(F)cc2[nH]1` (stereo not drawn) [Example 94, 5-(5,6-difluoro-1H-indole-2-carbonyl)-N-{1-[(difluoromethoxy)methyl]cyclopropyl}-6-methyl-4H,5H,6H,7H-pyrazolo[1,5-a]pyrazine-3-carboxamide]: the IC50 in data set [1] was less than 5 µM. In data set [2], this molecule had a CC50 at 6 days of more than 10 µM. The EC50 in the data set with HBV was less than 1000 nM.
